Results on 6 cell lines are retold here after the supplement of paper PMC10307832.

Experiment in all cases: relative viability (nuclei count vs DMSO), 5 days (fraction); higher = more cells survive
Compound in experiment [1]: CCn1c(-c2nonc2N)nc2c(C#CC(C)(C)O)ncc(OC[C@H]3CCCNC3)c21 + C[C@@H](Oc1cc(-c2cnn(C3CCNCC3)c2)cnc1N)c1c(Cl)ccc(F)c1Cl [Crizotinib] (partner 1 µM)
An outline of the steps:
(§1)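 Lung cancer cell lines in 1536-well plates got either a single drug or a fixed anchor-drug dose together with five library-drug doses (not always all listed) in √10 steps, by pin tool, on the day after seeding. Nuclei were counted after 5 days, and relative viability is the treated-to-vehicle ratio of nuclei counts. Values are medians of duplicate plates.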

Compound in experiment [2]: CCn1c(-c2nonc2N)nc2c(C#CC(C)(C)O)ncc(OC[C@H]3CCCNC3)c21 + CC(=O)Nc1cccc(-n2c(=O)n(C3CC3)c(=O)c3c(Nc4ccc(I)cc4F)n(C)c(=O)c(C)c32)c1 [Trametinib] (partner 0.02 µM)
An outline of the steps:
as §1

Compound in the experiment “BAM7 + Olaparib”: CCOC1=CC=CC=C1N=NC2=C(NN(C2=O)C3=NC(=CS3)C4=CC=CC=C4)C [BAM7] + O=C(c1cc(Cc2n[nH]c(=O)c3ccccc23)ccc1F)N1CCN(C(=O)C2CC2)CC1 [Olaparib] (partner 8 µM)
In a few lines:
as §1

Compound in experiment [3]: CCn1c(-c2nonc2N)nc2c(C#CC(C)(C)O)ncc(OC[C@H]3CCCNC3)c21 + COc1cccc2cc(-c3nc([C@H]4CC[C@H](C(=O)O)CC4)n4ncnc(N)c34)[nH]c12 [OSI-027] (partner 0.5 µM)
In a few lines: as §1

In the case of NCI-H2405, the relative viability in experiment [1] (first compound 0.01 µM) came to 0.888; in experiment [1] (first compound 0.03162 µM) it was 0.911; in experiment [1] (first compound 0.1 µM), 0.704; in experiment [1] (first compound 0.3162 µM), 0.798; in experiment [1] (first compound 1 µM) it was 0.848; in experiment [2] (first compound 0.01 µM), 0.664. The relative viability was determined as 0.683 in experiment [2] (first compound 0.03162 µM); 0.646 in experiment [2] (first compound 0.1 µM); 0.598 in experiment [2] (first compound 0.3162 µM); 0.604 in experiment [2] (first compound 1 µM); 0.936 in the experiment with BAM7 + Olaparib (first compound 0.5 µM); 0.936 with BAM7 + Olaparib (first compound 5 µM). Moreover, the relative viability in the experiment with BAM7 + Olaparib (first compound 15.81 µM) amounted to 0.889; in the experiment with BAM7 + Olaparib (first compound 50 µM), 0.908; in experiment [3] (first compound 0.01 µM) it was 0.646; in experiment [3] (first compound 0.03162 µM), 0.647; in experiment [3] (first compound 0.1 µM), 0.597; in experiment [3] (first compound 0.3162 µM), 0.612. The relative viability in experiment [3] (first compound 1 µM) was 0.612.
Regarding NCI-H322M, the relative viability in experiment [1] (first compound 0.01 µM) is 0.969; in experiment [1] (first compound 0.03162 µM) it was 0.981; in experiment [1] (first compound 0.1 µM) it was 0.9; in experiment [1] (first compound 0.3162 µM), 0.811; in experiment [1] (first compound 1 µM), 0.914; in experiment [2] (first compound 0.01 µM) it was 0.546. Besides, the relative viability was found to be 0.508 in experiment [2] (first compound 0.03162 µM); 0.505 in experiment [2] (first compound 0.1 µM); 0.433 in experiment [2] (first compound 0.3162 µM); 0.511 in experiment [2] (first compound 1 µM); 0.762 in the experiment with BAM7 + Olaparib (first compound 0.5 µM); 0.714 with BAM7 + Olaparib (first compound 5 µM). For the same cell line, the relative viability with BAM7 + Olaparib (first compound 15.81 µM) stood at 0.654; in the experiment with BAM7 + Olaparib (first compound 50 µM) it was 0.641; in experiment [3] (first compound 0.01 µM) it was 0.479; in experiment [3] (first compound 0.03162 µM), 0.496; in experiment [3] (first compound 0.1 µM), 0.45; in experiment [3] (first compound 0.3162 µM) it was 0.42. For the same cell line, the relative viability in experiment [3] (first compound 1 µM) is 0.483.
Consider NCI-H2170, for which the relative viability is 1.16 in experiment [1] (first compound 0.01 µM); 1.26 in experiment [1] (first compound 0.03162 µM); 1.1 in experiment [1] (first compound 0.1 µM); 1.15 in experiment [1] (first compound 0.3162 µM); 1.24 in experiment [1] (first compound 1 µM); 0.957 in experiment [2] (first compound 0.01 µM). Further, the relative viability is 0.982 in experiment [2] (first compound 0.03162 µM); 0.9 in experiment [2] (first compound 0.1 µM); 0.865 in experiment [2] (first compound 0.3162 µM); 1.11 in experiment [2] (first compound 1 µM); 0.497 with BAM7 + Olaparib (first compound 0.5 µM); 0.447 with BAM7 + Olaparib (first compound 5 µM). The relative viability with BAM7 + Olaparib (first compound 15.81 µM) turned out to be 0.439; in the experiment with BAM7 + Olaparib (first compound 50 µM), 0.476; in experiment [3] (first compound 0.01 µM), 0.733; in experiment [3] (first compound 0.03162 µM), 0.715; in experiment [3] (first compound 0.1 µM), 0.766; in experiment [3] (first compound 0.3162 µM), 0.66. In addition, the relative viability in experiment [3] (first compound 1 µM) stood at 0.679.
For NCI-H358, the relative viability worked out at 0.485 in experiment [1] (first compound 0.01 µM); 0.604 in experiment [1] (first compound 0.03162 µM); 0.51 in experiment [1] (first compound 0.1 µM); 0.669 in experiment [1] (first compound 0.3162 µM); 0.611 in experiment [1] (first compound 1 µM); 0.145 in experiment [2] (first compound 0.01 µM). In addition, the relative viability was found to be 0.133 in experiment [2] (first compound 0.03162 µM); 0.132 in experiment [2] (first compound 0.1 µM); 0.115 in experiment [2] (first compound 0.3162 µM); 0.104 in experiment [2] (first compound 1 µM); 0.535 with BAM7 + Olaparib (first compound 5 µM); 0.547 with BAM7 + Olaparib (first compound 15.81 µM). The relative viability with BAM7 + Olaparib (first compound 50 µM) worked out at 0.608; in experiment [3] (first compound 0.01 µM) it was 0.723; in experiment [3] (first compound 0.03162 µM), 0.822; in experiment [3] (first compound 0.1 µM), 0.692; in experiment [3] (first compound 0.3162 µM), 0.445; in experiment [3] (first compound 1 µM), 0.373.
With NCI-H838, the relative viability in experiment [1] (first compound 0.01 µM) was found to be 0.805; in experiment [1] (first compound 0.03162 µM), 0.969; in experiment [1] (first compound 0.1 µM) it was 0.826; in experiment [1] (first compound 0.3162 µM) it was 0.835; in experiment [1] (first compound 1 µM), 0.841; in experiment [2] (first compound 0.01 µM), 0.534. In addition, the relative viability in experiment [2] (first compound 0.03162 µM) stood at 0.556; in experiment [2] (first compound 0.1 µM) it was 0.5; in experiment [2] (first compound 0.3162 µM), 0.453; in experiment [2] (first compound 1 µM), 0.494; with BAM7 + Olaparib (first compound 0.5 µM), 0.876; with BAM7 + Olaparib (first compound 5 µM) it was 0.776. Moreover, the relative viability with BAM7 + Olaparib (first compound 15.81 µM) was 0.797; in the experiment with BAM7 + Olaparib (first compound 50 µM), 0.758; in experiment [3] (first compound 0.01 µM), 0.354; in experiment [3] (first compound 0.03162 µM), 0.406; in experiment [3] (first compound 0.1 µM), 0.367; in experiment [3] (first compound 0.3162 µM) it was 0.401. For the same cell line, the relative viability in experiment [3] (first compound 1 µM) was 0.428.
On to CAL-12T, for which the relative viability in experiment [1] (first compound 0.01 µM) came to 0.8; in experiment [1] (first compound 0.03162 µM), 0.653; in experiment [1] (first compound 0.1 µM) it was 0.546; in experiment [1] (first compound 0.3162 µM) it was 0.738; in experiment [1] (first compound 1 µM), 0.84; in experiment [2] (first compound 0.01 µM), 0.303. Also, the relative viability in experiment [2] (first compound 0.03162 µM) stood at 0.388; in experiment [2] (first compound 0.1 µM) it was 0.322; in experiment [2] (first compound 0.3162 µM), 0.317; in experiment [2] (first compound 1 µM), 0.297; with BAM7 + Olaparib (first compound 0.5 µM) it was 0.764; in the experiment with BAM7 + Olaparib (first compound 5 µM), 0.653. Also, the relative viability in the experiment with BAM7 + Olaparib (first compound 15.81 µM) was determined as 0.652; with BAM7 + Olaparib (first compound 50 µM), 0.711; in experiment [3] (first compound 0.01 µM), 0.424; in experiment [3] (first compound 0.03162 µM), 0.541; in experiment [3] (first compound 0.1 µM), 0.685; in experiment [3] (first compound 0.3162 µM), 0.453. Further, the relative viability in experiment [3] (first compound 1 µM) is 0.38.
